{"source": "patent US12173320B2", "about": "“Production of red blood cells and platelets from stem cells” (BOSTON MEDICAL CENTER CORPORATION, priority 2012, dated 2024)", "key": {"iPSC-derived MEPs [1]": {"tested_on": "iPSC-derived MEPs", "assay": "Growth / expansion of MEP cultures (manual counts, trypan blue exclusion)", "format": "cell-based, human", "experimental": "Plots were gated first in FSC vs. SSC and then from that population for PI ‘ and PE Hoechst’. […] (B) Representative phase contrast images of MEP population+FICZ. (C) Growth curve of day 15 MEPs+/−[…] FICZ. Cells were counted manually using trypan blue exclusion. Graphical data and the associated statistics are the result of three independent experiments per group.\nHigh passage iPSCs were plated onto matrigel coated 6-well plates in iPSC media conditioned on iMEFs for 24 hours and supplemented with 2 ng/ml Rho Kinase Inhibitor and 20 ng/ml bFGF. After two days, iPSC media was replaced with Mesoderm DO-1 media: RPMI (Invitrogen A1049101) supplemented with 5 ng/mlhBMP-4 (R&D 314-BP-010), 50 ng/ml hVEGF (R&D 293-VE-010), 25 ng/mlhWnt3a (R&D 287-TC-500) and 10% KOSR. At Day 2, Mesoderm DO-1 media was replaced with Mesoderm D2 media: RPMI supplemented with 5 ng/ml hBMP-4, 50 ng/mlhVEGF, 20 ng/ml bFGF and 10% KOSR. Mesoderm D3 media consisted of the following: StemPro 34 (Invitrogen 10639011), 5 ng/ml hBMP-4, 50 ng/mlhVEGF, and 20 ng/ml bFGF. Mesoderm media for days 4 and 5 consisted of: StemPro 34, 15 ng/mlhVEGF, and 5 ng/ml bFGF. Day 6 mesoderm media: 74% IMDM (Invitrogen 12330061), 24% Hams F12 (Mediatech 10-080-CV), 1% B27 supplement (Invitrogen 12587-010), 0.5% N2-supplement (Invitrogen 17502-048), 0.5% BSA (Sigma A3059), 50 ng/ml hVEGF, 100 ng/mlbFGF, 100 ng/ml hSCF (R&D 255-SC-010), 25 ng/ml hFlt3 Ligand (R&D 308-FKN-005). Day 7 media: 74% IMDM, 24% Hams F12, 1% B27 supplement, 0.5% N2-supplement, 0.5% BSA, 50 ng/ml hVEGF, 100 ng/ml bFGF, 100 ng/ml hSCF, 25 ng/ml hFlt3 Ligand, 50 ng/ml hTPO (Genentech G140BT), 10 ng/ml IL-6 (R&D 206-IL-010), 0.5 U/ml hEPOgen and 0.2 uM 6-formylindolo[3,2-b]carbazole (FICZ) (Santa Cruz SC300019). After Day 7, 0.5 ml of Day 7 media was added to the culture daily without aspirating the media from the previous day. All base media mixes included 2 mM L-Glutamine (Invitrogen 25030081), 4×10^-4M Monothioglycerol (Sigma M1753), 100 ug/ml Primocin, and 50 ug/ml Ascorbic Acid. Cells in suspension were collected and assayed at Days 10-13 or split for long-term culture.\n6-formylindolo[3,2-b]carbazole (FICZ), an AHR small molecule agonist, and CH223191, an AHR competitive inhibitor were used for these assays. CH223191 was added to mesoderm cultures at Day 6 at 5 μM (lx) and 2.504 (0.5×). 0.2 μM FICZ was added to cultures at Day 7 and media was added daily. DMSO was used as a vehicle control."}, "iPSC-derived MEPs [2]": {"tested_on": "iPSC-derived MEPs", "assay": "Immunophenotyping of MEP lineage specification (CD235, CD71, CD41 FACS)", "format": "cell-based, human", "settings": "MEPs in feeder-free conditions, continuous FICZ, day 15 to 30 and later", "experimental": "Roughly 10^5 cells were collected, spun, and re-suspended in 0.5% BSA in PBS. Samples were incubated for 30 min at ambient temperature with human antibodies including CD41a-FITC (BD 555466), CD235-PE (BD 555570), CD71-FITC (BD 555536), washed and spun at 3300 rpm for 7 min, and re-suspended in 0.5% BSA in PBS with 1 ug/ml Propidium Iodide. Samples were run on a BD FACScalibur using Cellquest Pro software and analyzed via FloJo 8.7. For ploidy analysis, cells were treated with 1.5% NP-40 (Boston Bioproducts P-872) and 62.5 ug/ml Propidium Iodide in PBS immediately before FACScalibur interrogation. For murine bone marrow, samples were first incubated for 5 min at ambient temperature with murine conjugated antibody CD16/32 (BD 553142) before a 30 min incubation with c-Kit-PE (BD 553355), CD41a-FITC (BD 553848), Ter119-PE (BD 553673). For cell viability assays, 2-3×10 ^5 cells were collected, re-suspended in 8.8 ug/ml Hoecsht 33342 in PBS supplemented with 5% FBS. Samples were then incubated in the dark at 37° C. for 15 min, washed, and re-suspended in 1 ug/ml Propidium Iodide in 5% FBS. Samples were run on an LSR-II machine with FACSDiva software and analyzed via FloJo 8.7.\nIn our previous studies in which we noted exponential expansion of iPSC-derived MEPs (FIG. 3), the AhR-mediated effect that we noted allowed us to culture cells for extended periods of time (>120 days). […]"}}}
{"smiles": "O=Cc1c2c(cc3c1=Nc1ccccc1-3)=Nc1ccccc1-2", "note": "[FICZ, 6-formylindolo[3,2-b]carbazole]", "values": [{"measurement": "expansion of MEPs (cell number)", "setting": "iPSC-derived MEPs [1]; after addition of FICZ to cultures", "result": "from a few thousand to a billion cells in a few weeks"}, {"measurement": "growth of MEPs", "setting": "iPSC-derived MEPs [1]; day 15 MEPs +/-0.2 μm FICZ, 2 week growth period, versus untreated", "result": "logarithmic expansion"}, {"measurement": "time cells could be cultured", "setting": "iPSC-derived MEPs [1]; iPSC-derived MEPs under AhR agonism", "result": "> 120", "unit": "days"}, {"measurement": "erythroid specification (CD71 / CD235 expression)", "setting": "iPSC-derived MEPs [2]", "result": "progressive erythroid specification and maturation"}]}
